Test system: MV4:11 human cancer cell lines
Experiment: Cellular viability / anti-proliferative assay, CellTiter-Glo, 5 day protocol
Type: cell-based
Settings: Homo sapiens, MV4-11, 120 h, MV4:11 cells; 5 day incubation; CellTiter-Glo; mean of at least two replicates; read-out: GI50 on cellular proliferation of MV4:11 human cancer cell lines
Protocol: Cellular Viability of Human Tumor Cell Lines
Anti-proliferative activity using MLL-harboring cell lines. MV-4-11 and K562 cells are grown in IMDM media supplemented with 10% FBS and 1% penicillin/streptomycin, Molm-13 cells are cultured in RPMI-1640 media supplemented with 10% FBS and 1% penicillin/streptomycin. Viability assays are performed by dispensing 200 cells at 7200 cells/mL into each well of an opaque 384-well plate and adding compounds at the indicated concentrations in a final volume, of 32 μL. and a final concentration of DMSO of 0.3% for all samples. A certain range of compound concentrations is made through a series of 2-fold dilutions starting 30 μM at the highest, total 22 dilutions. After a set incubation period, 5 day protocol, the viability of cells in each well is assessed using the CellTiter-Glo assay (Promega), read on a 96 Microplane Luminometer (Cytation 3, BioTek). Serial dilutions of each cell type are performed in all assays to generate standard curves and the final densities of cells are determined within the dynamic range of the instrument. GI50 values are calculated based on XLfit software (IDBS, Guildford, UK) with Sigmoidal Dose-Response Model. Each compound is tested in minimum of two replicates. Data are expressed as mean.

| GI50 [nM] | SMILES |
| --- | --- |
| 44 | COc1ccc2nc(C)cc(N3CCc4c(cc(Cn5ccnc5)cc4-c4cn(C)nc4C(F)(F)F)C3=O)c2c1 [Example 14, 7-((1H-Imidazol-1-yl)methyl)-2-(6-methoxy-2-methylquinolin-4-yl)-5-(1-methyl-3-(trifluoromethyl)-1H-pyrazol-4-yl)-3,4-dihydroisoquinolin-1(2H)-one] |
| < 20 | COc1cc(N2CCN(C(C)=O)CC2)c2nccc(N3CCc4c(cc(Cn5ccnc5)cc4-c4cn(C)nc4C(F)(F)F)C3=O)c2c1 [Example 32, 7-((1H-imidazol-1-yl)methyl)-2-(8-(4-acetylpiperazin-1-yl)-6-methoxyquinolin-4-yl)-5-(1-methyl-3-(trifluoromethyl)-1H-pyrazol-4-yl)-3,4-dihydroisoquinolin-1(2H)-one] |
| < 20 | COc1cc(N2CCN(C)C(=O)C2)c2nccc(N3CCc4c(cc(Cn5ccnc5)cc4-c4cn(C)nc4C(F)(F)F)C3=O)c2c1 [Example 33, 7-((1H-Imidazol-1-yl)methyl)-2-(6-methoxy-8-(4-methyl-3-oxopiperazin-1-yl)quinolin-4-yl)-5-(1-methyl-3-(trifluoromethyl)-1H-pyrazol-4-yl)-3,4-dihydroisoquinolin-1(2H)-one] |
| < 20 | CCc1cc(Br)c2nccc(N3CCc4c(cc(Cn5ccnc5)cc4-c4cn(C)nc4C(F)(F)F)C3=O)c2c1 [Example 34, 7-((1H-imidazol-1-yl)methyl)-2-(8-bromo-6-ethylquinolin-4-yl)-5-(1-methyl-3-(trifluoromethyl)-1H-pyrazol-4-yl)-3,4-dihydroisoquinolin-1(2H)-one] |
| 291 | COc1cc(C(=O)O)c2nccc(N3CCc4c(cc(Cn5ccnc5)cc4-c4cn(C)nc4C(F)(F)F)C3=O)c2c1 [Example 40, 4-(7-((1H-Imidazol-1-yl)methyl)-5-(1-methyl-3-(trifluoromethyl)-1H-pyrazol-4-yl)-1-oxo-3,4-dihydroisoquinolin-2(1H)-yl)-6-methoxyquinoline-8-carboxylic acid] |
| 24 | COc1cc(C(N)=O)c2nccc(N3CCc4c(cc(Cn5ccnc5)cc4-c4cn(C)nc4C(F)(F)F)C3=O)c2c1 [Example 41, 4-(7-((1H-Imidazol-1-yl)methyl)-5-(1-methyl-3-(trifluoromethyl)-1H-pyrazol-4-yl)-1-oxo-3,4-dihydroisoquinolin-2(1H)-yl)-6-methoxyquinoline-8-carboxamide] |
| 563 | COc1cc(C(=O)N2CCN(C)CC2)c2nccc(N3CCc4c(cc(Cn5ccnc5)cc4-c4cn(C)nc4C(F)(F)F)C3=O)c2c1 [Example 43, 7-((1H-Imidazol-1-yl)methyl)-2-(6-methoxy-8-(4-methylpiperazine-1-carbonyl)quinolin-4-yl)-5-(1-methyl-3-(trifluoromethyl)-1H-pyrazol-4-yl)-3,4-dihydroisoquinolin-1(2H)-one] |
| 326 | COc1cc(C(=O)N(C)C)c2nccc(N3CCc4c(cc(Cn5ccnc5)cc4-c4cn(C)nc4C(F)(F)F)C3=O)c2c1 [Example 45, 4-(7-((1H-Imidazol-1-yl)methyl)-5-(1-methyl-3-(trifluoromethyl)-1H-pyrazol-4-yl)-1-oxo-3,4-dihydroisoquinolin-2(1H)-yl)-6-methoxy-N,N-dimethylquinoline-8-carboxamide] |
| 444 | COc1cc(C(=O)N2CCOCC2)c2nccc(N3CCc4c(cc(Cn5ccnc5)cc4-c4cn(C)nc4C(F)(F)F)C3=O)c2c1 [Example 46, 7-((1H-Imidazol-1-yl)methyl)-2-(6-methoxy-8-(morpholine-4-carbonyl)quinolin-4-yl)-5-(1-methyl-3-(trifluoromethyl)-1H-pyrazol-4-yl)-3,4-dihydroisoquinolin-1(2H)-one] |
| 54 | COc1cc(C(=O)NC(C)C)c2nccc(N3CCc4c(cc(Cn5ccnc5)cc4-c4cn(C)nc4C(F)(F)F)C3=O)c2c1 [Example 47, 4-(7-((1H-Imidazol-1-yl)methyl)-5-(1-methyl-3-(trifluoromethyl)-1H-pyrazol-4-yl)-1-oxo-3,4-dihydroisoquinolin-2(1H)-yl)-N-isopropyl-6-methoxyquinoline-8-carboxamide] |
| 119 | CCCCNC(=O)c1cc(OC)cc2c(N3CCc4c(cc(Cn5ccnc5)cc4-c4cn(C)nc4C(F)(F)F)C3=O)ccnc12 [Example 48, 4-(7-((1H-Imidazol-1-yl)methyl)-5-(1-methyl-3-(trifluoromethyl)-1H-pyrazol-4-yl)-1-oxo-3,4-dihydroisoquinolin-2(1H)-yl)-N-butyl-6-methoxyquinoline-8-carboxamide] |
| < 20 | CCOC(=O)c1cc(CC)cc2c(N3CCc4c(cc(Cn5ccnc5)cc4-c4cn(C)nc4C(F)(F)F)C3=O)ccnc12 [Example 91, Ethyl 4-(7-((1H-imidazol-1-yl)methyl)-5-(1-methyl-3-(trifluoromethyl)-1H-pyrazol-4-yl)-1-oxo-3,4-dihydroisoquinolin-2(1H)-yl)-6-ethylquinoline-8-carboxylate] |
| 388 | CCc1cc(C(=O)O)c2nccc(N3CCc4c(cc(Cn5ccnc5)cc4-c4cn(C)nc4C(F)(F)F)C3=O)c2c1 [Example 92, 4-(7-((1H-imidazol-1-yl)methyl)-5-(1-methyl-3-(trifluoromethyl)-1H-pyrazol-4-yl)-1-oxo-3,4-dihydroisoquinolin-2(1H)-yl)-6-ethylquinoline-8-carboxylic acid] |
| 83 | CCc1cc(-c2cccn2C)c2nccc(N3CCc4c(cc(Cn5ccnc5)cc4-c4cn(C)nc4C(F)(F)F)C3=O)c2c1 [Example 97, 7-((1H-Imidazol-1-yl)methyl)-2-(6-ethyl-8-(1-methyl-1H-pyrrol-2-yl)quinolin-4-yl)-5-(1-methyl-3-(trifluoromethyl)-1H-pyrazol-4-yl)-3,4-dihydroisoquinolin-1(2H)-one] |
| < 20 | Cc1cc(N2CCN(C)CC2)c2cncc(N3CCc4c(cc(Cn5ccnc5)cc4-c4cn(C)nc4C(F)(F)F)C3=O)c2c1 [Example 100, 7-((1H-Imidazol-1-yl)methyl)-6′-methyl-5-(1-methyl-3-(trifluoromethyl)-1H-pyrazol-4-yl)-8′-(4-methylpiperazin-1-yl)-3,4-dihydro-1H-[2,4′-biisoquinolin]-1-one] |
| < 20 | COc1cc(N2CCN(C)CC2)c2nc(C)cc(N3CCc4c(cc(Cn5ccnc5)cc4-c4cn(C)nc4C(F)(F)F)C3=O)c2c1 [Example 102, 7-((1H-Imidazol-1-yl)methyl)-2-(6-methoxy-2-methyl-8-(4-methylpiperazin-1-yl)quinolin-4-yl)-5-(1-methyl-3-(trifluoromethyl)-1H-pyrazol-4-yl)-3,4-dihydroisoquinolin-1(2H)-one] |
| < 20 | COc1cc(N2CCN(C)C(=O)C2)c2nc(C)cc(N3CCc4c(cc(Cn5ccnc5)cc4-c4cn(C)nc4C(F)(F)F)C3=O)c2c1 [Example 105, 7-((1H-Imidazol-1-yl)methyl)-2-(6-methoxy-2-methyl-8-(4-methyl-3-oxopiperazin-1-yl)quinolin-4-yl)-5-(1-methyl-3-(trifluoromethyl)-1H-pyrazol-4-yl)-3,4-dihydroisoquinolin-1(2H)-one] |
| < 20 | CCc1cc(N2CCN(C)C(=O)C2)c2nc(C)cc(N3CCc4c(cc(Cn5ccnc5)cc4-c4cn(C)nc4C(F)(F)F)C3=O)c2c1 [Example 111, 7-((1H-Imidazol-1-yl)methyl)-2-(6-ethyl-2-methyl-8-(4-methyl-3-oxopiperazin-1-yl)quinolin-4-yl)-5-(1-methyl-3-(trifluoromethyl)-1H-pyrazol-4-yl)-3,4-dihydroisoquinolin-1(2H)-one] |
| < 20 | CCc1cc(N2CCN(C(C)C)CC2)c2nc(C)cc(N3CCc4c(cc(Cn5ccnc5)cc4-c4cn(C)nc4C(F)(F)F)C3=O)c2c1 [Example 137, 7-((1H-Imidazol-1-yl)methyl)-2-(6-ethyl-8-(4-isopropylpiperazin-1-yl)-2-methylquinolin-4-yl)-5-(1-methyl-3-(trifluoromethyl)-1H-pyrazol-4-yl)-3,4-dihydroisoquinolin-1(2H)-one] |
| 36 | CCc1cc(N2CCOCC2)c2nc(C)cc(N3CCc4c(cc(Cn5ccnc5)cc4-c4cn(C)nc4C(F)(F)F)C3=O)c2c1 [Example 145, 7-((1H-Imidazol-1-yl)methyl)-2-(6-ethyl-2-methyl-8-morpholinoquinolin-4-yl)-5-(1-methyl-3-(trifluoromethyl)-1H-pyrazol-4-yl)-3,4-dihydroisoquinolin-1(2H)-one] |
| 26 | COc1cc(N2CCOCC2)c2nc(C)cc(N3CCc4c(cc(Cn5ccnc5)cc4-c4cn(C)nc4C(F)(F)F)C3=O)c2c1 [Example 146, 7-((1H-Imidazol-1-yl)methyl)-2-(6-methoxy-2-methyl-8-morpholinoquinolin-4-yl)-5-(1-methyl-3-(trifluoromethyl)-1H-pyrazol-4-yl)-3,4-dihydroisoquinolin-1(2H)-one] |
| 43 | CCc1cc(C2=CCN(C)CC2)c2nc(C)cc(N3CCc4c(cc(Cn5ccnc5)cc4-c4cn(C)nc4C(F)(F)F)C3=O)c2c1 [Example 147, 7-((1H-imidazol-1-yl)methyl)-2-(6-ethyl-2-methyl-8-(1-methyl-1,2,3,6-tetrahydropyridin-4-yl)quinolin-4-yl)-5-(1-methyl-3-(trifluoromethyl)-1H-pyrazol-4-yl)-3,4-dihydroisoquinolin-1(2H)-one] |

— patent US12692249B2, “WDR5 inhibitors and modulators” (Vanderbilt University, priority 2019, dated 2026)
